The values below come from PubChem BioAssay AID1219 (NMMLSC, 2008).

Records with an inconclusive call do not appear. Active and inactive are the calls of the source.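 The calls were made as follows: active = score of 100, fluorescent reporter fully moved to nucleus as with estrogen, or estrogen effect fully blocked; inactive = score of 0 or 50, partial or no effect.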

For the experiment, the target named is G-protein coupled estrogen receptor 1 (Homo sapiens) (UniProt Q99527). The experiment can be described thus: PH-RFP redistribution after GPER stimulation – imaging, Cos7 GPR30-GFP, Akt PH domain, orthogonal assay for GPR30 ligand project, confirmation (AID 1219). The conditions noted are these: PIP3 nuclear translocation imaging, at 10 µM, active compounds read high.
Turning to `COc1cccc(NS(=O)(=O)c2ccc3c(c2)C2C=CCC2C(c2ccc(C(=O)O)cc2)N3)c1` (configuration not stated), the translocation response score was 50 (inactive). Under `O=C(O)c1ccc2c(c1)C1C(Cl)C(Sc3ccccc3[N+](=O)[O-])CC1C(c1cccc([N+](=O)[O-])c1)N2` (configuration not stated) stands 0 (inactive); under `Nc1ncnc2c1ncn2C1CCC(CO)C(O)C1` (configuration not stated), 50 (inactive); under `O=C(O)c1cc(Cl)c2c(c1)[C@@H]1C=CC[C@@H]1[C@H](c1ccc(S(=O)(=O)N3CCOCC3)cc1)N2`, 50 (inactive). In the case of `Cc1cc(-c2nn3c(-c4ccccc4)nnc3s2)c2ccccc2n1` it was 100; in that of `COc1ccccc1N1CCN(C(=O)c2ccc3nc(-c4ccco4)c(-c4ccco4)nc3c2)CC1`, 100.

For the compound `Cc1cc(C)c2c(c1)[C@@H]1C=CC[C@@H]1[C@H](c1ccc(S(=O)(=O)N3CCOCC3)cc1)N2`, the translocation response score was 100.
